Results on 1 substance are retold here after patent publication US4414205A, “Cell growth inhibitory substances” (University Patents, Inc., priority 1981, dated 1983).

Test [1] relates to P388 leukemia. As to the kind of experiment: Mouse tumor system P388 leukemia (murine P388 lymphocytic leukemia). It is filed as in vivo. The protocol: (§1) A description of the antitumor tests, described herein, appears in the reference by R. I. Geran, N. H. Greenberg, M. M. MacDonald, A. M. Schumacher and B. J. Abbott, Cancer Chemother. Rep. Part 3, Vol. 3(2): 1-103 (1972).
(§2) ^a tumors were inoculated intraperitoneally (i.p.)
(§3) ^b compounds were administered i.p. everyday for 9 days starting on
(§4) the first day after tumor inoculation.
(§5) ^c Calculated from median survival times; Nos. in parentheses = No. o
(§6) cures/total No. of mice in group. Cured mice survive for at least 60 days

Test [2] concerns B16 melanoma. Nature of the test: Mouse tumor system B16 melanoma (NCI murine B16 melanoma test). It is filed as in vivo. The protocol: as §1, §2, §3, §4, §5, §6

Consider Dolastatin 1, for which the “life span in percent of controls” value was 188% of controls in test [1] (P388 leukemia inoculated i.p., compound i.p. every day for 9 days at optimal dose, from median survival times) and 240% of controls in test [2] (B16 melanoma inoculated i.p., compound i.p. every day for 9 days at optimal dose, from median survival times). In addition, the optimal dose is 11 μg/kg/injection in test [1] (P388 leukemia, i.p. every day for 9 days starting first day after tumor inoculation) and 11 μg/kg/injection in test [2] (B16 melanoma, i.p. every day for 9 days starting first day after tumor inoculation). Also, the life extension in test [1] (murine P388 lymphocytic leukemia, intraperitoneal doses of 11 μg/kg/day) was 88%. In addition, in test [2] (B16 melanoma i.p., optimal dose i.p. daily for 9 days, cured mice survive at least 60 days), the “No. of cures/total No. of mice in group” value is recorded as 3/10. For the same substance, the curative response in test [2] (murine B16 melanoma, intraperitoneal dose of 11 μg/kg/day) came out at 30%.
